{"source": "patent US8288381B2", "about": "“N-9 substituted purine compounds, compositions and methods of use” (Genentech, Inc., priority 2009, dated 2012)", "key": {"[1]": {"tested_on": "AKT serine-473 phosphorylation in PC-3 cells", "assay": "In vitro phospho-AKT serine 473 cellular assay", "format": "cell-based", "conditions": "Homo sapiens, 0.5 h; PC-3 cells stimulated with EGF, 30 minutes compound incubation; read-out: EC50 activity level (50% decrease of S473 AKT phosphorylation)", "procedure": "The assay measures a test compound's inhibition of AKT serine-473 phosphorylation in human prostate adenocarcinoma derived PC-3 (ATCC CRL-1435) cells that have been stimulated with epidermal growth factor (EGF).\nThe PC-3 cell line is maintained in RPMI1640 media supplemented with 10% FBS, 2 mM Glutamine, and 10 mM HEPES pH 7.4 at 37° C. in a 5% CO2 humidified incubator.\nCells are seeded in 384-well plates at 7,000 cells/well in 50 μl growth media. After 24 hours, growth media is removed and replaced with RPMI1640 containing no FBS. Cells are treated with 10 concentrations of test compounds or DMSO alone for controls (final DMSO concentration 0.5%) and incubated at 37° C. for 30 minutes. Cells are then stimulated for 10 minutes with 100 ng/ml EGF (final concentration). One column of controls is not stimulated with EGF to observe the signal ratio between stimulated and non-stimulated cells. After 10 minutes, compounds and stimulation media are removed and replaced with 25 μl lysis buffer containing protease inhibitors and phosphatase inhibitors. This buffer contains detergent to bring about cellular disruption. […] Following the transfer of lysate to the MSD plate, AKT in the lysate is captured on the coated antibody by incubation on a shaker at 4° C. for 16 hours. Following the capture step the plate is washed and then incubated for two hours with an antibody to S473 phosphorylated AKT which is conjugated with a Sulfo-Tag. This tag gives a signal when in proximity to the electrode on the base of the MSD plate. Binding the tagged antibody to the captured protein allow detection on a MSD reader.\nThe EC50 is defined as the concentration at which a given compound achieves 50% decrease of the measured levels of S473 AKT phosphorylation. EC50 values are calculated using MDL Assay Explorer 3.0.1.8 fitting a sigmoidal curve with a variable slope."}, "[2]": {"biological_target": "mTOR enzyme (mTOR(1360-2549)+GBL) (Homo sapiens, UniProt P42345)", "sequence (P42345 1360-2549)": "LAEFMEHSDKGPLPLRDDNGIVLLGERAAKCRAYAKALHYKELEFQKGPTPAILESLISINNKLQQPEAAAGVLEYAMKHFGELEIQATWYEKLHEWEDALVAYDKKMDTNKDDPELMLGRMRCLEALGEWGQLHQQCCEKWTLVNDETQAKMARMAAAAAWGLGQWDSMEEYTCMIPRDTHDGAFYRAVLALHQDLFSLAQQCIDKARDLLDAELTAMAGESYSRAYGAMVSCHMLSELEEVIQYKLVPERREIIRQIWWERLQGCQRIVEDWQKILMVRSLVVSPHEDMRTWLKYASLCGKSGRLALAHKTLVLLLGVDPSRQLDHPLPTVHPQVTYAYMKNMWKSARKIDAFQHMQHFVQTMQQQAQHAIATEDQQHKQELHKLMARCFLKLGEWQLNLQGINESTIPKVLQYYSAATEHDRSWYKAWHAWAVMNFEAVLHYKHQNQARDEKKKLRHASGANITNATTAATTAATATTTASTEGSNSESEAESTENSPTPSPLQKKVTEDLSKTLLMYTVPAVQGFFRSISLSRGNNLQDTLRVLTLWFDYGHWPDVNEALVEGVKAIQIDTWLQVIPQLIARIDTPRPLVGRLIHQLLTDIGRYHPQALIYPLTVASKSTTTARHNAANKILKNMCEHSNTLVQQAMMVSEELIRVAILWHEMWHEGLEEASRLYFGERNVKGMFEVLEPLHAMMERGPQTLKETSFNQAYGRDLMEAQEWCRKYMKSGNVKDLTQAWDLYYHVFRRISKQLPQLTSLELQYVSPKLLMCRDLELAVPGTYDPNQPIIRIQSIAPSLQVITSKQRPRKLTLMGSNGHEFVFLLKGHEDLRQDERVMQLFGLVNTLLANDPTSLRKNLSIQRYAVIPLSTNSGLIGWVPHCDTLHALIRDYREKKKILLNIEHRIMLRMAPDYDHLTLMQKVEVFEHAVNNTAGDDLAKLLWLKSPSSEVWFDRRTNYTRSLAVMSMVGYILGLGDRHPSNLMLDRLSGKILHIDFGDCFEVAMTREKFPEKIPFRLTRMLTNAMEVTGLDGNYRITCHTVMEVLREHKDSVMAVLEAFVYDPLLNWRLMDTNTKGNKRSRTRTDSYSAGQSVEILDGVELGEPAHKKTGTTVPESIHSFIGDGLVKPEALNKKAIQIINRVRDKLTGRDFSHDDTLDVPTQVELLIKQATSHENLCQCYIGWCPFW", "sequence (Q9BVC4 whole entry partner)": "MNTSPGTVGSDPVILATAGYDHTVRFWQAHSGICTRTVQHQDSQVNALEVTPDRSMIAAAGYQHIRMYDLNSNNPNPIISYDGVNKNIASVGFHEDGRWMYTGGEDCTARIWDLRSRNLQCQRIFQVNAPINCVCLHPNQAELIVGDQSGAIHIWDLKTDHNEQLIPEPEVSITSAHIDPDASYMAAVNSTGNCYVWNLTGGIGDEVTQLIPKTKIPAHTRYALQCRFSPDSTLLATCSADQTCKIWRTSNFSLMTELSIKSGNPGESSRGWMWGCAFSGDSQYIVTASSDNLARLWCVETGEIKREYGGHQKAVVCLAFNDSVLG", "assay": "In vitro mTOR kinase assay (TR-FRET)", "format": "biochemical", "conditions": "Ki apparent, Morrison ATP-competitive tight binding equation; 8 uM ATP, 0.25 nM mTOR+GBL; read-out: activity level (Ki) in the mTOR kinase assay", "procedure": "The kinase activity of mTOR enzyme is assessed by incubating purified recombinant enzyme (mTOR(1360-2549)+GBL, prepared in-house) in a reaction mixture containing ATP, MnCl2, and a fluorescently labeled mTOR substrate, e.g., GFP-4E-BP1 (Invitrogen, product #PR8808A). The reaction is stopped by an addition of a Terbium-labeled phospho-specific antibody, e.g., Tb-labeled anti-p4E-BP1 T37/T46, (Invitrogen, product #PR8835A), EDTA, and TR-FRET buffer solution (Invitrogen, Product #PR3756B). Product formation is detected by way of time-resolved fluorescence resonance energy transfer (TR-FRET), which occurs when the phosphorylated substrate and labeled antibody are in close proximity due to phospho-specific binding. Enzymatic activity is measured as an increase in TR-FRET signal using a Perkin Elmer Envision plate reader. The assay is performed in a 384-well Proxiplate Plus (Perkin Elmer. Product #6008269) using the following protocol:\nCompound activity is tested in 10 point dose curves starting at the highest final concentration of 10 uM. They are serially diluted in 100% DMSO prior to further dilution with assay buffer. The reaction mixture (8 uls) containing 0.25 nM mTOR+GBL enzyme, 400 nM GFP-4E-BP1, 8 uM ATP, 50 mM Hepes pH 7.5, 0.01% Tween 20, 10 mM MnCl2, 1 mM EGTA, 1 mM DTT, 1% DMSO (+/−compound) is incubated at room temperature for 30 minutes. 8 μL of solution containing 2 nM Tb-anti-p4E-BP1 antibody & 10 mM EDTA diluted TR-FRET buffer is then added and incubated for 30 minutes to stop the reaction. The plate is scanned with the Envision plate reader. Ki values are calculated in Assay Explorer using the Morrison ATP-competitive tight binding equation for Ki apparent determination."}, "PC3 cells": {"tested_on": "PC3 cells", "assay": "In vitro cell proliferation assay", "format": "cell-based", "conditions": "Homo sapiens, PC-3; with PC3 cells", "procedure": "Efficacy of Formula I compounds were measured by a cell proliferation assay employing the following protocol:\n1. An aliquot of 20 μl of cell culture containing about 10^3 cells (PC3 or MDAMB361.1) in medium was deposited in each well of a 384-well, opaque-walled plate.\n2. Control wells were prepared containing medium and without cells; Cells were allowed to settle overnight.\n3. The compound was added to the experimental wells and incubated for 3 days.\n4. The plates were equilibrated to room temperature for approximately 30 minutes.\n5. A volume of CellTiter-Glo Reagent equal to the volume of cell culture medium present in each well was added.\n6. The contents were mixed for 2 minutes on an orbital shaker to induce cell lysis.\n7. The plate was incubated at room temperature for 20 minutes to stabilize the luminescence signal.\n8. Luminescence was recorded and reported in graphs as RLU=relative luminescence units.\nAlternatively, cells were seeded at optimal density in a 96 well plate and incubated for 4 days in the presence of test compound. Alamar Blue™ was subsequently added to the assay medium, and cells were incubated for 6 h before reading at 544 nm excitation, 590 nm emission. IC50 values were calculated using a sigmoidal dose response curve fit."}}}
{"smiles": "CCNC(=O)Nc1ccc(-c2nc(N3CCOC[C@@H]3C)c3nc(C4(O)COC4)n(C)c3n2)cc1", "note": "[Compound 101, (S)-1-ethyl-3-(4-(8-(3-hydroxyoxetan-3-yl)-9-methyl-6-(3-methylmorpholino)-9H-purin-2-yl)phenyl)urea]", "values": [{"measurement": "EC50", "setting": "[1]", "value": 30, "unit": "nM"}, {"measurement": "Ki", "setting": "[2]", "value": 7, "unit": "nM"}, {"measurement": "IC50", "setting": "PC3 cells", "value": 282, "unit": "nM"}]}
{"smiles": "CCNC(=O)Nc1ccc(-c2nc(N3CCOC[C@@H]3C)c3nc(C4CC4)n(C)c3n2)cc1", "note": "[Compound 102, (S)-1-(4-(8-cyclopropyl-9-methyl-6-(3-methylmorpholino)-9H-purin-2-yl)phenyl)-3-ethylurea]", "values": [{"measurement": "EC50", "setting": "[1]", "value": 37, "unit": "nM"}, {"measurement": "Ki", "setting": "[2]", "value": 8, "unit": "nM"}, {"measurement": "IC50", "setting": "PC3 cells", "value": 207, "unit": "nM"}]}
{"smiles": "CCNC(=O)Nc1ccc(-c2nc(N3CCOC[C@@H]3C)c3nc(C4(O)CCOCC4)n(C)c3n2)cc1", "note": "[Compound 103, (S)-1-ethyl-3-(4-(8-(4-hydroxytetrahydro-2H-pyran-4-yl)-9-methyl-6-(3-methylmorpholino)-9H-purin-2-yl)phenyl)urea]", "values": [{"measurement": "EC50", "setting": "[1]", "value": 29, "unit": "nM"}, {"measurement": "Ki", "setting": "[2]", "value": 5, "unit": "nM"}, {"measurement": "IC50", "setting": "PC3 cells", "value": 120, "unit": "nM"}]}
{"smiles": "CCNC(=O)Nc1ccc(-c2nc(N3CCOC[C@@H]3C)c3nc(C4(O)CCOCC4)n(CC)c3n2)cc1", "note": "[Compound 104, (S)-1-ethyl-3-(4-(9-ethyl-8-(4-hydroxytetrahydro-2H-pyran-4-yl)-6-(3-methylmorpholino)-9H-purin-2-yl)phenyl)urea]", "values": [{"measurement": "EC50", "setting": "[1]", "value": 10, "unit": "nM"}, {"measurement": "Ki", "setting": "[2]", "value": 4, "unit": "nM"}, {"measurement": "IC50", "setting": "PC3 cells", "value": 115, "unit": "nM"}]}
{"smiles": "CCNC(=O)Nc1ccc(-c2nc(N3CCOC[C@@H]3C)c3nc(C4(O)CNC4)n(C)c3n2)cc1", "note": "[Compound 105, (S)-1-ethyl-3-(4-(8-(3-hydroxyazetidin-3-yl)-9-methyl-6-(3-methylmorpholino)-9H-purin-2-yl)phenyl)urea]", "values": [{"measurement": "Ki", "setting": "[2]", "value": 74, "unit": "nM"}]}
{"smiles": "CCNC(=O)Nc1ccc(-c2nc(N3CCOC[C@@H]3C)c3nc(C4CC4)n(CC)c3n2)cc1", "note": "[Compound 106, (S)-1-(4-(8-cyclopropyl-9-ethyl-6-(3-methylmorpholino)-9H-purin-2-yl)phenyl)-3-ethylurea]", "values": [{"measurement": "EC50", "setting": "[1]", "value": 15, "unit": "nM"}, {"measurement": "Ki", "setting": "[2]", "value": 8, "unit": "nM"}, {"measurement": "IC50", "setting": "PC3 cells", "value": 441, "unit": "nM"}]}
{"smiles": "CCNC(=O)Nc1ccc(-c2nc(N3CCOC[C@@H]3C)c3nc(-c4cncnc4)n(CC)c3n2)cc1", "note": "[Compound 107, (S)-1-ethyl-3-(4-(9-ethyl-6-(3-methylmorpholino)-8-(pyrimidin-5-yl)-9H-purin-2-yl)phenyl)urea]", "values": [{"measurement": "EC50", "setting": "[1]", "value": 7, "unit": "nM"}, {"measurement": "Ki", "setting": "[2]", "value": 3, "unit": "nM"}, {"measurement": "IC50", "setting": "PC3 cells", "value": 112, "unit": "nM"}]}
{"smiles": "CCNC(=O)Nc1ccc(-c2nc(N3CCOC[C@@H]3C)c3nc(C4(F)COC4)n(C)c3n2)cc1", "note": "[Compound 108, (S)-1-ethyl-3-(4-(8-(3-fluorooxetan-3-yl)-9-methyl-6-(3-methylmorpholino)-9H-purin-2-yl)phenyl)urea]", "values": [{"measurement": "EC50", "setting": "[1]", "value": 9, "unit": "nM"}, {"measurement": "Ki", "setting": "[2]", "value": 3, "unit": "nM"}, {"measurement": "IC50", "setting": "PC3 cells", "value": 232, "unit": "nM"}]}
{"smiles": "CCNC(=O)Nc1ccc(-c2nc(N3CCOC[C@@H]3C)c3nc(C4(F)COC4)n(CC)c3n2)cc1", "note": "[Compound 109, (S)-1-ethyl-3-(4-(8-(3-fluorooxetan-3-yl)-9-ethyl-6-(3-methylmorpholino)-9H-purin-2-yl)phenyl)urea]", "values": [{"measurement": "EC50", "setting": "[1]", "value": 8, "unit": "nM"}, {"measurement": "Ki", "setting": "[2]", "value": 3, "unit": "nM"}, {"measurement": "IC50", "setting": "PC3 cells", "value": 218, "unit": "nM"}]}
{"smiles": "CCNC(=O)Nc1ccc(-c2nc(N3CCOC[C@@H]3C)c3nc(C4(F)CCOCC4)n(CC)c3n2)cc1", "note": "[Compound 110, (S)-1-ethyl-3-(4-(9-ethyl-8-(4-fluorotetrahydro-2H-pyran-4-yl)-6-(3-methylmorpholino)-9H-purin-2-yl)phenyl)urea]", "values": [{"measurement": "EC50", "setting": "[1]", "value": 5, "unit": "nM"}, {"measurement": "Ki", "setting": "[2]", "value": 5, "unit": "nM"}, {"measurement": "IC50", "setting": "PC3 cells", "value": 163, "unit": "nM"}]}
{"smiles": "CCNC(=O)Nc1ccc(-c2nc(N3CCOC[C@@H]3C)c3nc(C4(O)COC4)n(CC)c3n2)cc1", "note": "[Compound 111, (S)-1-ethyl-3-(4-(9-ethyl-8-(3-hydroxyoxetan-3-yl)-6-(3-methylmorpholino)-9H-purin-2-yl)phenyl)urea]", "values": [{"measurement": "EC50", "setting": "[1]", "value": 4, "unit": "nM"}, {"measurement": "Ki", "setting": "[2]", "value": 4, "unit": "nM"}, {"measurement": "IC50", "setting": "PC3 cells", "value": 269, "unit": "nM"}]}
{"smiles": "CCn1c(C2CC2)nc2c(N3CCOC[C@@H]3C)nc(-c3ccc(Nc4cccc(=O)[nH]4)cc3)nc21", "note": "[Compound 112, (S)-6-(4-(8-cyclopropyl-9-ethyl-6-(3-methylmorpholino)-9H-purin-2-yl)phenylamino)pyridin-2(1H)-one]", "values": [{"measurement": "EC50", "setting": "[1]", "value": 6, "unit": "nM"}, {"measurement": "Ki", "setting": "[2]", "value": 6, "unit": "nM"}, {"measurement": "IC50", "setting": "PC3 cells", "value": 853, "unit": "nM"}]}
{"smiles": "CCn1c(C2CC2)nc2c(N3CCOC[C@@H]3C)nc(-c3ccc(NC(=O)NC4COC4)cc3)nc21", "note": "[Compound 113, (S)-1-(4-(8-cyclopropyl-9-ethyl-6-(3-methylmorpholino)-9H-purin-2-yl)phenyl)-3-(oxetan-3-yl)urea]", "values": [{"measurement": "EC50", "setting": "[1]", "value": 8, "unit": "nM"}, {"measurement": "Ki", "setting": "[2]", "value": 8, "unit": "nM"}, {"measurement": "IC50", "setting": "PC3 cells", "value": 1700, "unit": "nM"}]}
